Numbers after ± are expanded uncertainties.
Assay: mn = molality of the nth substance listed, in mol/kg
Details: 101 kPa, Liquid; for speed of sound: Sing-around technique in a fixed-path interferometer

O=P([O-])([O-])O.[Na+].[Na+] [disodium hydrogen phosphate] + O
speed of sound (283.15 K, m1 = 0.007): 1449.3 ± 0.8 m/s
speed of sound (283.15 K, m1 = 0.0104): 1450 ± 0.8 m/s
speed of sound (283.15 K, m1 = 0.0141): 1450.8 ± 0.81 m/s
speed of sound (283.15 K, m1 = 0.032): 1454.2 ± 0.81 m/s
speed of sound (283.15 K, m1 = 0.0386): 1455.5 ± 0.81 m/s
speed of sound (283.15 K, m1 = 0.0411): 1456 ± 0.81 m/s
speed of sound (283.15 K, m1 = 0.0496): 1457.7 ± 0.81 m/s
speed of sound (283.15 K, m1 = 0.0632): 1460.3 ± 0.81 m/s
speed of sound (283.15 K, m1 = 0.0737): 1462.3 ± 0.81 m/s
speed of sound (283.15 K, m1 = 0.1066): 1468.4 ± 0.81 m/s
speed of sound (283.15 K, m1 = 0.181): 1481.8 ± 0.82 m/s
speed of sound (283.15 K, m1 = 0.2454): 1493.2 ± 0.82 m/s
speed of sound (283.15 K, m1 = 0.2498): 1493.8 ± 0.82 m/s
speed of sound (283.15 K, m1 = 0.2939): 1501.6 ± 0.82 m/s
speed of sound (283.15 K, m1 = 0.3192): 1506 ± 0.83 m/s
speed of sound (283.15 K, m1 = 0.3723): 1514.9 ± 0.83 m/s
speed of sound (283.15 K, m1 = 0.4483): 1527.7 ± 0.84 m/s
speed of sound (283.15 K, m1 = 0.6185): 1555.7 ± 0.84 m/s
speed of sound (283.15 K, m1 = 0.7841): 1582.3 ± 0.85 m/s
mass density (283.15 K, m1 = 0.007): 1000.71 ± 0.21 kg/m3
mass density (283.15 K, m1 = 0.0104): 1001.19 ± 0.21 kg/m3
mass density (283.15 K, m1 = 0.0141): 1001.72 ± 0.21 kg/m3
mass density (283.15 K, m1 = 0.032): 1004.23 ± 0.21 kg/m3
mass density (283.15 K, m1 = 0.0386): 1005.14 ± 0.21 kg/m3
mass density (283.15 K, m1 = 0.0411): 1005.5 ± 0.21 kg/m3
mass density (283.15 K, m1 = 0.0496): 1006.7 ± 0.21 kg/m3
mass density (283.15 K, m1 = 0.0632): 1008.57 ± 0.21 kg/m3
mass density (283.15 K, m1 = 0.0737): 1010.03 ± 0.22 kg/m3
mass density (283.15 K, m1 = 0.1066): 1014.53 ± 0.22 kg/m3
mass density (283.15 K, m1 = 0.181): 1024.58 ± 0.23 kg/m3
mass density (283.15 K, m1 = 0.2454): 1033.1 ± 0.24 kg/m3
mass density (283.15 K, m1 = 0.2498): 1033.68 ± 0.24 kg/m3
mass density (283.15 K, m1 = 0.2939): 1039.48 ± 0.25 kg/m3
mass density (283.15 K, m1 = 0.3192): 1042.77 ± 0.25 kg/m3
mass density (283.15 K, m1 = 0.3723): 1049.55 ± 0.26 kg/m3
mass density (283.15 K, m1 = 0.4483): 1059.19 ± 0.28 kg/m3
mass density (283.15 K, m1 = 0.6185): 1080.36 ± 0.31 kg/m3
mass density (283.15 K, m1 = 0.7841): 1100.26 ± 0.34 kg/m3
speed of sound (288.15 K, m1 = 0.007): 1467.6 ± 0.81 m/s
speed of sound (288.15 K, m1 = 0.0104): 1468.3 ± 0.81 m/s
speed of sound (288.15 K, m1 = 0.0141): 1469 ± 0.81 m/s
speed of sound (288.15 K, m1 = 0.032): 1472.3 ± 0.81 m/s
speed of sound (288.15 K, m1 = 0.0386): 1473.6 ± 0.81 m/s
speed of sound (288.15 K, m1 = 0.0411): 1474.1 ± 0.81 m/s
speed of sound (288.15 K, m1 = 0.0496): 1475.7 ± 0.81 m/s
speed of sound (288.15 K, m1 = 0.0632): 1478.2 ± 0.81 m/s
speed of sound (288.15 K, m1 = 0.0737): 1480.1 ± 0.82 m/s
speed of sound (288.15 K, m1 = 0.1066): 1486 ± 0.82 m/s
speed of sound (288.15 K, m1 = 0.181): 1499.1 ± 0.82 m/s
speed of sound (288.15 K, m1 = 0.2454): 1510.1 ± 0.83 m/s
speed of sound (288.15 K, m1 = 0.2498): 1510.8 ± 0.83 m/s
speed of sound (288.15 K, m1 = 0.2939): 1518.3 ± 0.83 m/s
speed of sound (288.15 K, m1 = 0.3192): 1522.6 ± 0.83 m/s
speed of sound (288.15 K, m1 = 0.3723): 1531.2 ± 0.84 m/s
speed of sound (288.15 K, m1 = 0.4483): 1543.6 ± 0.84 m/s
speed of sound (288.15 K, m1 = 0.6185): 1570.8 ± 0.85 m/s
speed of sound (288.15 K, m1 = 0.7841): 1596.7 ± 0.86 m/s
mass density (288.15 K, m1 = 0.007): 1000.1 ± 0.2 kg/m3
mass density (288.15 K, m1 = 0.0104): 1000.57 ± 0.21 kg/m3
mass density (288.15 K, m1 = 0.0141): 1001.09 ± 0.19 kg/m3
mass density (288.15 K, m1 = 0.032): 1003.56 ± 0.21 kg/m3
mass density (288.15 K, m1 = 0.0386): 1004.46 ± 0.21 kg/m3
mass density (288.15 K, m1 = 0.0411): 1004.81 ± 0.21 kg/m3
mass density (288.15 K, m1 = 0.0496): 1006 ± 0.21 kg/m3
mass density (288.15 K, m1 = 0.0632): 1007.85 ± 0.21 kg/m3
mass density (288.15 K, m1 = 0.0737): 1009.28 ± 0.21 kg/m3
mass density (288.15 K, m1 = 0.1066): 1013.73 ± 0.22 kg/m3
mass density (288.15 K, m1 = 0.181): 1023.64 ± 0.23 kg/m3
mass density (288.15 K, m1 = 0.2454): 1032.07 ± 0.25 kg/m3
mass density (288.15 K, m1 = 0.2498): 1032.64 ± 0.23 kg/m3
mass density (288.15 K, m1 = 0.2939): 1038.38 ± 0.25 kg/m3
mass density (288.15 K, m1 = 0.3192): 1041.64 ± 0.25 kg/m3
mass density (288.15 K, m1 = 0.3723): 1048.34 ± 0.26 kg/m3
mass density (288.15 K, m1 = 0.4483): 1057.89 ± 0.27 kg/m3
mass density (288.15 K, m1 = 0.6185): 1078.87 ± 0.3 kg/m3
mass density (288.15 K, m1 = 0.7841): 1098.62 ± 0.33 kg/m3
speed of sound (293.15 K, m1 = 0.007): 1483.8 ± 0.82 m/s
speed of sound (293.15 K, m1 = 0.0104): 1484.5 ± 0.82 m/s
speed of sound (293.15 K, m1 = 0.0141): 1485.2 ± 0.82 m/s
speed of sound (293.15 K, m1 = 0.032): 1488.4 ± 0.82 m/s
speed of sound (293.15 K, m1 = 0.0386): 1489.6 ± 0.82 m/s
speed of sound (293.15 K, m1 = 0.0411): 1490.1 ± 0.82 m/s
speed of sound (293.15 K, m1 = 0.0496): 1491.7 ± 0.82 m/s
speed of sound (293.15 K, m1 = 0.0632): 1494.1 ± 0.82 m/s
speed of sound (293.15 K, m1 = 0.0737): 1495.9 ± 0.82 m/s
speed of sound (293.15 K, m1 = 0.1066): 1501.7 ± 0.82 m/s
speed of sound (293.15 K, m1 = 0.181): 1514.3 ± 0.83 m/s
speed of sound (293.15 K, m1 = 0.2454): 1525 ± 0.83 m/s
speed of sound (293.15 K, m1 = 0.2498): 1525.7 ± 0.83 m/s
speed of sound (293.15 K, m1 = 0.2939): 1533 ± 0.84 m/s
speed of sound (293.15 K, m1 = 0.3192): 1537.1 ± 0.84 m/s
speed of sound (293.15 K, m1 = 0.3723): 1545.5 ± 0.84 m/s
speed of sound (293.15 K, m1 = 0.4483): 1557.6 ± 0.85 m/s
speed of sound (293.15 K, m1 = 0.6185): 1584 ± 0.85 m/s
speed of sound (293.15 K, m1 = 0.7841): 1609.1 ± 0.86 m/s
mass density (293.15 K, m1 = 0.007): 999.185 ± 0.2 kg/m3
mass density (293.15 K, m1 = 0.0104): 999.653 ± 0.2 kg/m3
mass density (293.15 K, m1 = 0.0141): 1000.17 ± 0.19 kg/m3
mass density (293.15 K, m1 = 0.032): 1002.61 ± 0.2 kg/m3
mass density (293.15 K, m1 = 0.0386): 1003.49 ± 0.2 kg/m3
mass density (293.15 K, m1 = 0.0411): 1003.85 ± 0.21 kg/m3
mass density (293.15 K, m1 = 0.0496): 1005.01 ± 0.21 kg/m3
mass density (293.15 K, m1 = 0.0632): 1006.84 ± 0.21 kg/m3
mass density (293.15 K, m1 = 0.0737): 1008.26 ± 0.21 kg/m3
